Source: patent publication US20060074061A1, “Formulations of glucocorticoids to treat pathologic ocular angiogenesis” (priority 2003, published 2006)

Assay: Topical anecortave acetate in patients with glucocorticoid induced ocular hypertension (IOP)
Assay type: in vivo, human
Settings: patients (n=15) with glucocorticoid induced ocular hypertension; 1% eye drops topically three times per day for up to 12 weeks; glucocorticoid medication continued; IOP before treatment 29 mm Hg; significantly reduced
Description: Patients (η=15) with documented glucocorticoid induced ocular hypertension were treated topically with 1% anecortave acetate eye drops three times per day for up to 12 weeks. The patients continued to receive their glucocorticoid medication.

For `CC(=O)OCC(=O)[C@@]1(O)CC[C@H]2[C@@H]3CCC4=CC(=O)CC[C@]4(C)C3=CC[C@@]21C` [anecortave acetate, 4,9(11)-pregnadien-17α,21-diol-3,20dione-21-acetate], the “IOP after anecortave acetate treatment” value was 19-22 mm Hg.
